Reference: ChEMBL document CHEMBL3616445, “Design, synthesis and biological evaluation of multifunctional ligands targeting opioid and bradykinin 2 receptors” (Bioorg Med Chem Lett, 2015)
Square brackets hold non-standard residues; d marks the D form. Side chains are listed from the residue outwards. Peptide text beside a SMILES is read from it. Oic = O=C(O)[C@@H]1C[C@@H]2CCCC[C@@H]2N1; Hyp = O=C(O)[C@@H]1C[C@@H](O)CN1; dTic = O=C(O)[C@H]1Cc2ccccc2CN1; 2Thi = N[C@@H](Cc1cccs1)C(=O)O; Dap = NC[C@H](N)C(=O)O

How the values were obtained:
B2 bradykinin receptor [1] = biological target: T1, B2 bradykinin receptor (Rattus norvegicus, UniProt P25023); assay: Displacement of [3H]BK from B2R in rat brain membranes by liquid scintillation counting in based radioligand competition assay; assay type: cell membranes, Membrane
T1 sequence (P25023 whole entry): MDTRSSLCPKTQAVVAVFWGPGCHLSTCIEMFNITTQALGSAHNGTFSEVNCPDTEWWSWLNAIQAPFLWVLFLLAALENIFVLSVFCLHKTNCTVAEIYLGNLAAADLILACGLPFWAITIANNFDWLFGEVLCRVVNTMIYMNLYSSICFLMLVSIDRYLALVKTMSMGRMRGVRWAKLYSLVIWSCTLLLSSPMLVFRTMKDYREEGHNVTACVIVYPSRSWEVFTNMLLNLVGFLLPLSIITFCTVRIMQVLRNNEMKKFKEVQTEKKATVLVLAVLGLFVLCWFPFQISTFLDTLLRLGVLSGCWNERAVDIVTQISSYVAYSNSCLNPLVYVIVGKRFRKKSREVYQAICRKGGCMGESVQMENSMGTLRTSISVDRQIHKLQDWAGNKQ

[2] = biological target: Delta-type opioid receptor (Homo sapiens, UniProt P41143); assay: Displacement of [3H]DPDPE from human delta opiod receptor
Mu-type opioid receptor = Mu-type opioid receptor (Rattus norvegicus, UniProt P33535); assay: Displacement of [3H]DAMGO from rat mu opiod receptor
B2 bradykinin receptor [3] = biological target: T2, B2 bradykinin receptor (Cavia porcellus, UniProt O70526); assay: Antagonist activity against B2R in Hartley guinea pig ileum assessed as reduction in electrically-induced response; assay type: tissue-based
T2 sequence (O70526 whole entry): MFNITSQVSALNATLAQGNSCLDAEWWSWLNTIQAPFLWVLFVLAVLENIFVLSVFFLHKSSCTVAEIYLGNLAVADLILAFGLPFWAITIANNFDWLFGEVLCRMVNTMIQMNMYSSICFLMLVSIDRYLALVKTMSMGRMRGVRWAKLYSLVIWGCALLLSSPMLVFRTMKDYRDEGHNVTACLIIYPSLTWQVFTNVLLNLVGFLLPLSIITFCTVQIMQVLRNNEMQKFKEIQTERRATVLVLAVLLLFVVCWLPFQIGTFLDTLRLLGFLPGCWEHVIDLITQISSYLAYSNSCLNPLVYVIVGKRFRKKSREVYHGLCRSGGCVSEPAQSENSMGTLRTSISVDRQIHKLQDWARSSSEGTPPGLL

B2 bradykinin receptor [4] = biological target: T2, B2 bradykinin receptor; assay: Binding affinity to B2R in guinea pig ileum membranes; assay type: cell membranes, Membrane

Sequence of Mu-type opioid receptor (P33535 whole entry): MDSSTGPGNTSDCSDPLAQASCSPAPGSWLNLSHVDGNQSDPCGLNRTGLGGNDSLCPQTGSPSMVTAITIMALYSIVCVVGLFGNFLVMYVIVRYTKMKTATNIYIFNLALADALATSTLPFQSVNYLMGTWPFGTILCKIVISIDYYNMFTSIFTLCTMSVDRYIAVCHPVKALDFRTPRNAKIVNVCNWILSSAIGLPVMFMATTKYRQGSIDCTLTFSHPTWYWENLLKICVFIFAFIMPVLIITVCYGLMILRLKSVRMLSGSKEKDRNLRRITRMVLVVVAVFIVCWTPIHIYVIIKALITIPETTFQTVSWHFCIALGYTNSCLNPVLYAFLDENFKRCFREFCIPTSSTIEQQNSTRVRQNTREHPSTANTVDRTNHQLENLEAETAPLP
Sequence of Delta-type opioid receptor (P41143 whole entry): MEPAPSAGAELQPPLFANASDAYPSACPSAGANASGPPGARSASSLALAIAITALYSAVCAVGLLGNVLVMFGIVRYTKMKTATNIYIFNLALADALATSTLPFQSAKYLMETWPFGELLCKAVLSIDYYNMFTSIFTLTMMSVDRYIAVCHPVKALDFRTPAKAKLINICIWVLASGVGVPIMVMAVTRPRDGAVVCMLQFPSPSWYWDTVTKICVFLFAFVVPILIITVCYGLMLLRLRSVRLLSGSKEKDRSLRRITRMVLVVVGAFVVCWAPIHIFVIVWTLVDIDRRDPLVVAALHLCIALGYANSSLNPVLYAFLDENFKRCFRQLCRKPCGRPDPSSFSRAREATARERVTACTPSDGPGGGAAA

Compound | Ki (B2 bradykinin receptor [1]) [nM] | Ki [2] [nM] | Ki (Mu-type opioid receptor) [nM] | IC50 [2] [nM] | IC50 (Mu-type opioid receptor) [nM] | further results
N=C(N)NCCC[C@H](NC(=O)[C@@H]1C[C@@H]2CCCC[C@@H]2N1C(=O)[C@H]1Cc2ccccc2CN1C(=O)[C@H](CO)NC(=O)[C@H](Cc1cccs1)NC(=O)CNC(=O)[C@@H]1C[C@@H](O)CN1C(=O)[C@@H]1CCCN1C(=O)[C@H](CCCNC(=N)N)NC(=O)[C@@H](CCCNC(=N)N)NC(=O)[C@H](Cc1ccccc1)NC(=O)[C@@H]1CCCN1C(=O)[C@@H](N)Cc1ccc(O)cc1)C(=O)O | > 10000 | > 10000 | 2300 | – | – | pIC50 (Mu-type opioid receptor): 5.29
CSCC[C@H](NC(=O)[C@H](Cc1ccccc1)NC(=O)[C@@H](C)NC(=O)[C@@H](N)Cc1ccc(O)cc1)C(=O)N[C@H](CCCNC(=N)N)C(=O)N[C@@H](CCCNC(=N)N)C(=O)N1CCC[C@H]1C(=O)N1C[C@H](O)C[C@H]1C(=O)NCC(=O)N[C@@H](Cc1cccs1)C(=O)N[C@@H](CO)C(=O)N1Cc2ccccc2C[C@@H]1C(=O)N1[C@H](C(=O)N[C@@H](CCCNC(=N)N)C(=O)O)C[C@@H]2CCCC[C@@H]21 | 5200 | 6900 | 70 | 17000 | 155 | IC50 (B2 bradykinin receptor [3]): 1.8 nM
N=C(N)NCCC[C@H](NC(=O)[C@@H]1C[C@@H]2CCCC[C@@H]2N1C(=O)[C@H]1Cc2ccccc2CN1C(=O)[C@H](CO)NC(=O)[C@H](Cc1cccs1)NC(=O)CNC(=O)[C@@H]1C[C@@H](O)CN1C(=O)[C@@H]1CCCN1C(=O)[C@H](CCCNC(=N)N)NC(=O)[C@@H](CCCNC(=N)N)NC(=O)[C@H](Cc1ccccc1)NC(=O)[C@H](Cc1ccccc1)NC(=O)[C@@H]1CCCN1C(=O)[C@@H](N)Cc1ccc(O)cc1)C(=O)O | > 10000 | > 10000 | 480 | – | – | IC50 (B2 bradykinin receptor [3]): 1.9 nM; pIC50 (Mu-type opioid receptor): 5.97
C[C@@H](NC(=O)[C@@H](N)Cc1ccc(O)cc1)C(=O)NCC(=O)N[C@@H](Cc1ccccc1)C(=O)N[C@H](CCCNC(=N)N)C(=O)N[C@@H](CCCNC(=N)N)C(=O)N1CCC[C@H]1C(=O)N1C[C@H](O)C[C@H]1C(=O)NCC(=O)N[C@@H](Cc1cccs1)C(=O)N[C@@H](CO)C(=O)N1Cc2ccccc2C[C@@H]1C(=O)N1[C@H](C(=O)N[C@@H](CCCNC(=N)N)C(=O)O)C[C@@H]2CCCC[C@@H]21 | > 10000 | – | – | 4170 | 22.9 | IC50 (B2 bradykinin receptor [3]): 1.7 nM
C[C@@H](NC(=O)[C@@H](N)Cc1ccc(O)cc1)C(=O)NCC(=O)N[C@@H](Cc1ccccc1)C(=O)NCCC(=O)N[C@H](CCCNC(=N)N)C(=O)N[C@@H](CCCNC(=N)N)C(=O)N1CCC[C@H]1C(=O)N1C[C@H](O)C[C@H]1C(=O)NCC(=O)N[C@@H](Cc1cccs1)C(=O)N[C@@H](CO)C(=O)N1Cc2ccccc2C[C@@H]1C(=O)N1[C@H](C(=O)N[C@@H](CCCNC(=N)N)C(=O)O)C[C@@H]2CCCC[C@@H]21 | – | – | – | 91.2 | 3.09 | –
C[C@@H](NC(=O)[C@@H](N)Cc1ccc(O)cc1)C(=O)NCC(=O)N[C@@H](Cc1ccccc1)C(=O)NCCCCCCCC(=O)N[C@H](CCCNC(=N)N)C(=O)N[C@@H](CCCNC(=N)N)C(=O)N1CCC[C@H]1C(=O)N1C[C@H](O)C[C@H]1C(=O)NCC(=O)N[C@@H](Cc1cccs1)C(=O)N[C@@H](CO)C(=O)N1Cc2ccccc2C[C@@H]1C(=O)N1[C@H](C(=O)N[C@@H](CCCNC(=N)N)C(=O)O)C[C@@H]2CCCC[C@@H]21 | – | – | – | 4.68 | 1.23 | –
C[C@@H](NC(=O)[C@@H](N)Cc1ccc(O)cc1)C(=O)NCC(=O)N[C@@H](Cc1ccccc1)C(=O)NC[C@H](N)C(=O)N[C@H](CCCNC(=N)N)C(=O)N[C@@H](CCCNC(=N)N)C(=O)N1CCC[C@H]1C(=O)N1C[C@H](O)C[C@H]1C(=O)NCC(=O)N[C@@H](Cc1cccs1)C(=O)N[C@@H](CO)C(=O)N1Cc2ccccc2C[C@@H]1C(=O)N1[C@H](C(=O)N[C@@H](CCCNC(=N)N)C(=O)O)C[C@@H]2CCCC[C@@H]21 | – | – | 0.6 | – | 1.41 | –
C[C@@H](NC(=O)[C@@H](N)Cc1ccc(O)cc1)C(=O)NCC(=O)N[C@@H](Cc1ccccc1)C(=O)NC[C@H](N)C(=O)NCCC(=O)N[C@H](CCCNC(=N)N)C(=O)N[C@@H](CCCNC(=N)N)C(=O)N1CCC[C@H]1C(=O)N1C[C@H](O)C[C@H]1C(=O)NCC(=O)N[C@@H](Cc1cccs1)C(=O)N[C@@H](CO)C(=O)N1Cc2ccccc2C[C@@H]1C(=O)N1[C@H](C(=O)N[C@@H](CCCNC(=N)N)C(=O)O)C[C@@H]2CCCC[C@@H]21 | – | 7 | 0.5 | – | – | pIC50 [2]: 7.77; pIC50 (Mu-type opioid receptor): 8.94
C[C@@H](NC(=O)[C@@H](N)Cc1ccc(O)cc1)C(=O)NCC(=O)N[C@@H](Cc1ccccc1)C(=O)NCCCCCCCC(=O)NC[C@H](N)C(=O)N[C@H](CCCNC(=N)N)C(=O)N[C@@H](CCCNC(=N)N)C(=O)N1CCC[C@H]1C(=O)N1C[C@H](O)C[C@H]1C(=O)NCC(=O)N[C@@H](Cc1cccs1)C(=O)N[C@@H](CO)C(=O)N1Cc2ccccc2C[C@@H]1C(=O)N1[C@H](C(=O)N[C@@H](CCCNC(=N)N)C(=O)O)C[C@@H]2CCCC[C@@H]21 | – | – | 0.3 | – | 0.813 | –
C[C@@H](NC(=O)[C@@H](N)Cc1ccc(O)cc1)C(=O)NCC(=O)N[C@@H](Cc1ccccc1)C(=O)NC[C@H](NC(=O)[C@@H]1CCCN1C(=O)[C@H](CCCNC(=N)N)NC(=O)[C@H](N)CCCNC(=N)N)C(=O)NCC(=O)N[C@@H](Cc1cccs1)C(=O)N[C@@H](CO)C(=O)N1Cc2ccccc2C[C@@H]1C(=O)N1[C@H](C(=O)N[C@@H](CCCNC(=N)N)C(=O)O)C[C@@H]2CCCC[C@@H]21 | – | – | – | 6.76 | 4.79 | –
NC(N)=NCCC[C@@H](N)C(=O)N[C@@H](CCCN=C(N)N)C(=O)N1CCC[C@H]1C(=O)N1C[C@H](O)C[C@H]1C(=O)NCC(=O)N[C@@H](Cc1cccs1)C(=O)N[C@@H](CO)C(=O)N1Cc2ccccc2C[C@@H]1C(=O)N1[C@H](C(=O)N[C@@H](CCCN=C(N)N)C(=O)O)C[C@@H]2CCCC[C@@H]21 | > 10000 | – | – | – | – | Ki (B2 bradykinin receptor [4]): 1 nM
C[C@@H](NC(=O)[C@@H](N)Cc1ccc(O)cc1)C(=O)NCC(=O)N[C@@H](Cc1ccccc1)C(=O)NC[C@H](NC(=O)[C@H](Cc1cccs1)NC(=O)CNC(=O)[C@@H]1C[C@@H](O)CN1C(=O)[C@@H]1CCCN1C(=O)[C@H](CCCNC(=N)N)NC(=O)[C@H](N)CCCNC(=N)N)C(=O)N1Cc2ccccc2C[C@@H]1C(=O)N1[C@H](C(=O)N[C@@H](CCCNC(=N)N)C(=O)O)C[C@@H]2CCCC[C@@H]21 (H-[dR]RP[Hyp]G[2Thi][Dap]([Phe-Gly-dA-Tyr])[dTic][Oic]R-OH) | – | – | – | 0.603 | 15.5 | –
